In the assay the test system is Glo-Response ARE-luc2P HEK293 cell line. As to the kind of experiment: ARE luciferase reporter cell-based assay.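 Also: luciferase signal tracks Nrf2 activation of the ARE once compounds disrupt KEAP1-Nrf2 binding, read with One-Glo reagent, DMSO serving as low control.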 To be noted: average of results obtained.

One may read the EC50 as the midpoint of the concentration-response curve. Lower therefore signals a more potent agent. For the setting “Homo sapiens, HEK293, 24 h”, `Cc1ncc([C@@H](c2ccn3c(C(F)(F)F)nnc3c2C)C(C)(C)C(=O)O)cc1CN1C[C@H]2CCCCN2c2ncc(C#N)cc2S1(=O)=O` (relative stereo) [Example 654, (*R)-3-(5-(((*R)-3-Cyano-5,5-dioxido-7,7a,8,9,10,11-hexahydro-6H-dipyrido[2,1-d:2′,3′-f][1,2,5]thiadiazepin-6-yl)methyl)-6-methylpyridin-3-yl)-2,2-dimethyl-3-(8-methyl-3-(trifluoromethyl)-[1,2,4]triazolo[4,3-a]pyridin-7-yl)propanoic Acid] showed an EC50 of 6880 nM. The compound `Cc1ncc([C@H](c2ccn3c(C(F)(F)F)nnc3c2C)C(C)(C)C(=O)O)cc1CN1C[C@H]2CCCCN2c2ncc(C#N)cc2S1(=O)=O` (relative stereo) [Example 656, (*S)-3-(5-(((*R)-3-Cyano-5,5-dioxido-7,7a,8,9,10,11-hexahydro-6H-dipyrido[2,1-d:2′,3′-f][1,2,5]thiadiazepin-6-yl)methyl)-6-methylpyridin-3-yl)-2,2-dimethyl-3-(8-methyl-3-(trifluoromethyl)-[1,2,4]triazolo[4,3-a]pyridin-7-yl)propanoic Acid] showed a concentration giving a half-maximal response (EC50) (Homo sapiens, HEK293, 24 h) of 3590 nM. Where the note is “Homo sapiens, HEK293, 24 h”, `Cc1ccc([C@@H](c2ccn3c(C(F)(F)F)nnc3c2C)C(C)(C)C(=O)O)cc1CN1CC2(CCOCC2)Oc2nc(OCCN3CCCCC3)ccc2S1(=O)=O` (single isomer, unassigned) [Example 127] displayed an EC50 of 11.8 nM. Against the preceding compound, the EC50 is about 300-fold lower. Same read-out and setting: the same measure for `Cc1ccc([C@H](CC(=O)O)c2ccn3c(C(F)F)nnc3c2C)cc1CN1C[C@H]2CCCCN2c2ncc(F)cc2S1(=O)=O` (relative stereo) [Example 512, (*S)-3-(3-(Difluoromethyl)-8-methyl-[1,2,4]triazolo[4,3-a]pyridin-7-yl)-3-(3-(((*R)-3-fluoro-5,5-dioxido-7,7a,8,9,10,11-hexahydro-6H-dipyrido[2,1-d:2′,3′-f][1,2,5]thiadiazepin-6-yl)methyl)-4-methylphenyl)propanoic Acid]: 3.21 nM; for `CCn1nnc2c(C)c([C@H](CC(=O)O)c3ccc(C)c(CN4C[C@H]5CCCN5c5ccccc5S4(=O)=O)c3)ccc21` (single isomer, unassigned) [Example 154, (*R)-3-(3-(((R)-5,5-Dioxido-7a,8,9,10-tetrahydrobenzo[f]pyrrolo[2,1-d][1,2,5]thiadiazepin-6(7H)-yl)methyl)-4-methylphenyl)-3-(1-ethyl-4-methyl-1H-benzo[d][1,2,3]triazol-5-yl)propanoic Acid]: 59 nM; for `CCc1c([C@H](c2ccc(C)c(CN3C[C@H]4CCCCN4c4ncc(C)cc4S3(=O)=O)c2)C(C)C(=O)O)ccn2c(C(F)(F)F)nnc12` (relative stereo) [Example 515, (3*S)-3-(8-Ethyl-3-(trifluoromethyl)-[1,2,4]triazolo[4,3-a]pyridin-7-yl)-2-methyl-3-(4-methyl-3-(((*R)-3-methyl-5,5-dioxido-7,7a,8,9,10,11-hexahydro-6H-dipyrido[2,1-d:2′,3′-f][1,2,5]thiadiazepin-6-yl)methyl)phenyl)propanoic Acid]: 1.33 nM. For `Cc1ccc([C@H](CC(=O)O)c2ccn3c(C(F)F)nnc3c2C)cc1CN1C[C@@H]2CCCCN2c2ncc(F)cc2S1(=O)=O` (relative stereo) [Example 511, (*S)-3-(3-(Difluoromethyl)-8-methyl-[1,2,4]triazolo[4,3-a]pyridin-7-yl)-3-(3-(((*S)-3-fluoro-5,5-dioxido-7,7a,8,9,10,11-hexahydro-6H-dipyrido[2,1-d:2′,3′-f][1,2,5]thiadiazepin-6-yl)methyl)-4-methylphenyl)propanoic Acid], a half-maximal effect (Homo sapiens, HEK293, 24 h) (EC50) was put at 1.52 nM. Still for that read-out and setting: the same measure for `Cc1cnc2c(c1)S(=O)(=O)N(Cc1cc([C@H](c3ccn4c(C(F)(F)F)nnc4c3C)[C@@H](C)C(=O)O)ccc1C)CC1(CC1)O2` (relative stereo) [Example 546, (2*R,3*R)-2-Methyl-3-(4-methyl-3-((8′-methyl-1′,1′-dioxidospiro[cyclopropane-1,4′-pyrido[2,3-b][1,4,5]oxathiazepin]-2′(3′H)-yl)methyl)phenyl)-3-(8-methyl-3-(trifluoromethyl)-[1,2,4]triazolo[4,3-a]pyridin-7-yl)propanoic Acid]: greater than 20000 nM.

As to `Cc1c(C(CC(=O)O)c2ccc(Cl)c(CN3CC4(COC4)Oc4ccccc4S3(=O)=O)c2)ccn2c(C(F)(F)F)nnc12` (centres unmarked) [Example 95], for the setting “Homo sapiens, HEK293, 24 h”, it took 1080 nM to reach a half-maximal effect (EC50). Turning to `Cc1ccc(C(c2ccn3c(C(F)(F)F)nnc3c2C)C(C)C(=O)O)cc1CN1C[C@@H]2CCCCN2c2ncccc2S1(=O)=O` (stereo in doubt) [Example 129, 3-(3-(((*S)-5,5-Dioxido-7,7a,8,9,10,11-hexahydro-6H-dipyrido[2,1-d:2′,3′-f][1,2,5]thiadiazepin-6-yl)methyl)-4-methylphenyl)-2-methyl-3-(8-methyl-3-(trifluoromethyl)-[1,2,4]triazolo[4,3-a]pyridine-7-yl)propanoic Acid], a half-maximal effect (24 hours) (EC50) was put at 6.8 nM. This lies in the single-digit nanomolar range.

Turning to `Cc1ccc([C@H](CC(=O)O)c2ccn3c(C(F)(F)F)nnc3c2C)cc1CN1C[C@@H]2COCCN2c2ncccc2S1(=O)=O` (relative stereo) [Example 276, (*S)-3-(3-(((*R)-5,5-Dioxido-7a,8,10,11-tetrahydro-[1,4]oxazino[3,4-d]pyrido[2,3-f][1,2,5]thiadiazepin-6(7H)-yl)methyl)-4-methylphenyl)-3-(8-methyl-3-(trifluoromethyl)-[1,2,4]triazolo[4,3-a]pyridin-7-yl)propanoic Acid], the EC50 (24 hours) was found to be 112 nM. Where the note is “Homo sapiens, HEK293, 24 h”, `Cc1cnc2c(c1)S(=O)(=O)N(Cc1cc(C(c3ccn4c(C(F)(F)F)nnc4c3)C(C)(C)C(=O)O)ccc1C)CC1(CC1)O2` (centres unmarked) [Example 322, 2,2-Dimethyl-3-(4-methyl-3-((8′-methyl-1′,1′-dioxidospiro[cyclopropane-1,4′-pyrido[2,3-b][1,4,5]oxathiazepin]-2′(3′H)-yl)methyl)phenyl)-3-(3-(trifluoromethyl)-[1,2,4]triazolo[4,3-a]pyridin-7-yl)propanoic Acid] registered an EC50 of 22.4 nM. `CCn1nnc2c(C)c([C@@H](CC(=O)O)c3ccc(C)c(CN4CC(C)(C)Oc5ccccc5S4(=O)=O)c3)ccc21` (single isomer, unassigned) [Example 158, (*S)-3-(3-((4,4-Dimethyl-1,1-dioxido-3,4-dihydro-2H-benzo[b][1,4,5]oxathiazepin-2-yl)methyl)-4-methylphenyl)-3-(1-ethyl-4-methyl-1H-benzo[d][1,2,3]triazol-5-yl)propanoic Acid] returned an EC50 (Homo sapiens, HEK293, 24 h) of 6.2 nM.

Compound `Cc1cnc2c(c1)S(=O)(=O)N(Cc1cc(C(CC(=O)O)c3ccn4c(C(F)F)nnc4c3C)ccc1C)C[C@H]1CCCCN21` (stereo in doubt) [Example 502, 3-(3-(Difluoromethyl)-8-methyl-[1,2,4]triazolo[4,3-a]pyridin-7-yl)-3-(4-methyl-3-(((*R)-3-methyl-5,5-dioxido-7,7a,8,9,10,11-hexahydro-6H-dipyrido[2,1-d:2′,3′-f][1,2,5]thiadiazepin-6-yl)methyl)phenyl)propanoic Acid] gave an EC50 (Homo sapiens, HEK293, 24 h) of 3.92 nM. For the compound `CCn1nnc2c(C)c(C(CC(=O)O)c3ccc(C)c(CN4CC(C)(C)Oc5ncccc5S4(=O)=O)c3)ccc21` (racemic) [Example 150, (R/S)-3-[3-[(4,4-Dimethyl-1,1-dioxo-3H-pyrido[2,3-b][1,4,5]oxathiazepin-2-yl)methyl]-4-methyl-phenyl]-3-(1-ethyl-4-methyl-benzotriazol-5-yl)propanoic Acid], the EC50 (Homo sapiens, HEK293, 24 h) is 56 nM.

In turn, `Cc1ccc([C@H](CC(=O)O)c2ccn3c(C(F)(F)F)nnc3c2C)cc1CN1C[C@H]2CCCCN2c2ncc(Cl)cc2S1(=O)=O` (relative stereo) [Example 193, (*S)-3-(3-(((*R)-3-Chloro-5,5-dioxido-7,7a,8,9,10,11-hexahydro-6H-dipyrido[2,1-d:2′,3′-f][1,2,5]thiadiazepin-6-yl)methyl)-4-methylphenyl)-3-(8-methyl-3-(trifluoromethyl)-[1,2,4]triazolo[4,3-a]pyridin-7-yl)propanoic Acid] gave an EC50 (Homo sapiens, HEK293, 24 h) of 1.7 nM. Against the preceding compound, the EC50 is about 33-fold lower. `Cc1ccc([C@H](CC(=O)O)c2ccn3c(C(F)F)nnc3c2C)cc1CN1CC2(CCOCC2)Oc2ccc(F)cc2S1(=O)=O` (single isomer, unassigned) [Example 524, (*S)-3-(3-(Difluoromethyl)-8-methyl-[1,2,4]triazolo[4,3-a]pyridin-7-yl)-3-(3-((8-fluoro-1,1-dioxido-2′,3′,5′,6′-tetrahydrospiro[benzo[b][1,4,5]oxathiazepine-4,4′-pyran]-2(3H)-yl)methyl)-4-methylphenyl)propanoic Acid] gave an EC50 (Homo sapiens, HEK293, 24 h) of 19.7 nM. Same read-out and setting: the same measure for `Cc1ccc([C@@H](c2ccn3c(C(F)(F)F)nnc3c2C)C(C)C(=O)O)cc1CN1CC2(CCOCC2)Oc2ccc(F)cc2S1(=O)=O` (single isomer, unassigned) [Example 416, (3S*)-3-(3-((8-fluoro-1,1-dioxido-2′,3′,5′,6′-tetrahydrospiro[benzo[b][1,4,5]oxathiazepine-4,4′-pyran]-2(3H)-yl)methyl)-4-methylphenyl)-2-methyl-3-(8-methyl-3-(trifluoromethyl)-[1,2,4]triazolo[4,3-a]pyridin-7-yl)propanoic Acid]: 2.53 nM; for `Cc1cnc2c(c1)S(=O)(=O)N(Cc1cc([C@H](c3ccn4c(C(F)(F)F)nnc4c3C)[C@H](C)C(=O)O)ccc1C)CC1(CC1)O2` (relative stereo) [Example 545, (2*S,3*R)-2-Methyl-3-(4-methyl-3-((8′-methyl-1′,1′-dioxidospiro[cyclopropane-1,4′-pyrido[2,3-b][1,4,5]oxathiazepin]-2′(3′H)-yl)methyl)phenyl)-3-(8-methyl-3-(trifluoromethyl)-[1,2,4]triazolo[4,3-a]pyridin-7-yl)propanoic Acid]: 49.8 nM; for `Cc1ccc([C@H](CC(=O)O)c2ccn3c(C(F)(F)F)nnc3c2C)cc1CN1C[C@@H]2CCCCN2c2nc(C#N)ccc2S1(=O)=O` (relative stereo) [Example 202, (*S)-3-(3-(((*S)-2-Cyano-5,5-dioxido-7,7a,8,9,10,11-hexahydro-6H-dipyrido[2,1-d:2′,3′-f][1,2,5]thiadiazepin-6-yl)methyl)-4-methylphenyl)-3-(8-methyl-3-(trifluoromethyl)-[1,2,4]triazolo[4,3-a]pyridin-7-yl)propanoic Acid]: 13 nM.

Source of the values: patent US10947252B2, “Inhibitors of KEAP1-Nrf2 protein-protein interaction” (Janssen Pharmaceutica NV, priority 2018, dated 2021).
